Assay results: the supplement of paper PMC11061612

Tests used:
[1] = tested on: KNS-62 (Squamous Cell Lung Carcinoma); experiment: combination Emax (second highest fraction inhibited in the dose matrix, 72 h); higher = more inhibition; extreme values may be limits of the assay
Outline: (§1)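 Cell lines grown in DMEM/F12 or RPMI with 10% FBS were plated in 1536-well plates and held 24 hours at 37°C, 5% CO2 before 72 hours of exposure to two-drug dose matrices, with DMSO typically at 0.2%. CellTiter-Glo 2.0 luminescence gave viability, which was converted to inhibition. Vehicle wells were set to 0 and blank wells to 1. Combination Emax is the second-highest inhibition in the matrix, and Bliss excess is the observed combination effect minus the expected EA + EB − EA·EB, where EA and EB are the single-agent effects.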

RVH-421 (Melanoma) [2] = experiment: as above
Outline: as §1

[3] = tested on: RS4-11 (B-Lymphoblastic Leukemia); experiment: as above
Outline: as §1

[4] = tested on: Daudi (Burkitt's Lymphoma); experiment: as above
Outline: as §1

[5] = tested on: IGROV-1 (Ovarian Carcinoma); experiment: as above
Outline: as §1

C32 (Melanoma) = experiment: as above
Outline: as §1

[6] = tested on: NCI-H2170 (Squamous Cell Lung Carcinoma); experiment: as above
Outline: as §1

[7] = tested on: OCI-M1 (Acute Myeloid Leukemia); experiment: as above
Outline: as §1

[8] = tested on: SBC-5 (Small Cell Lung Carcinoma); experiment: as above
Outline: as §1

[9] = tested on: NTERA-2-cl-D1 (Other Solid Carcinomas); experiment: as above
Outline: as §1

NCI-H2452 (Mesothelioma) = experiment: as above
Outline: as §1

[10] = tested on: L-363 (Plasma Cell Myeloma); experiment: as above
Outline: as §1

[11] = tested on: ATN-1 (T-Lymphoblastic Leukemia); experiment: as above
Outline: as §1

[12] = tested on: NCI-H2009 (Lung Adenocarcinoma); experiment: as above
Outline: as §1

[13] = tested on: MDA-MB-175-VII (Breast Carcinoma); experiment: as above
Outline: as §1

RVH-421 (Melanoma) [14] = experiment: Bliss excess, mean over the matrix (fraction); higher = more synergy
Outline: as §1
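Throughout, for Bliss excess, mean over the matrix: after 72 h of two-drug dosing.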

| Compound | combination Emax [1] | combination Emax (RVH-421 (Melanoma) [2]) | combination Emax [3] | combination Emax [4] | combination Emax [5] | combination Emax (C32 (Melanoma)) | combination Emax [6] | combination Emax [7] | combination Emax [8] | combination Emax [9] | combination Emax (NCI-H2452 (Mesothelioma)) | combination Emax [10] | combination Emax [11] | combination Emax [12] | combination Emax [13] | Bliss excess (RVH-421 (Melanoma) [14]) |
| --- | --- | --- | --- | --- | --- | --- | --- | --- | --- | --- | --- | --- | --- | --- | --- | --- |
| CN(C)CCCOc1ccc(-c2ccc3ncc4c(c3c2)n(C2CCOCC2)c(=O)n4C)cn1 [AZD0156] + C=CCn1c(=O)c2cnc(Nc3ccc(N4CCN(C)CC4)cc3)nc2n1-c1cccc(C(C)(C)O)n1 [AZD1775] (first compound max 1 µM, partner max 1 µM) | 0.185 | 0.161 | 0.881 | 0.781 | 0.769 | 0.442 | 0.7 | 0.869 | 0.423 | 0.376 | 0.589 | 0.985 | 1 | 0.557 | 0.299 | -0.0576 |
| CN(C)CCCOc1ccc(-c2ccc3ncc4c(c3c2)n(C2CCOCC2)c(=O)n4C)cn1 [AZD0156] + CCN(CCO)CCCOc1ccc2c(Nc3cc(CC(=O)Nc4cccc(F)c4)[nH]n3)ncnc2c1 [AZD2811] (first compound max 1 µM, 7x7, partner max 1 µM) | 0.141 | 0.0787 | 0.979 | 0.497 | 0.539 | 0.14 | 0.656 | 0.222 | 0.313 | 0.469 | 0.221 | 0.192 | 0.835 | 0.189 | 0.208 | -0.0626 |
| CN(C)CCCOc1ccc(-c2ccc3ncc4c(c3c2)n(C2CCOCC2)c(=O)n4C)cn1 [AZD0156] + C[C@@H]1COCCN1C2=NC(=NC(=C2)C3(CC3)[S@](=N)(=O)C)C4=C5C=CNC5=NC=C4 [AZD6738] (first compound max 1 µM, 7x7, partner max 10 µM) | 0.485 | 0.18 | 0.943 | 0.848 | 0.724 | 0.666 | 0.799 | 0.982 | 0.813 | 0.595 | 0.559 | 0.92 | 1 | 0.459 | 0.342 | -0.0581 |
| C=CCn1c(=O)c2cnc(Nc3ccc(N4CCN(C)CC4)cc3)nc2n1-c1cccc(C(C)(C)O)n1 [AZD1775] + C[C@@H]1COCCN1C2=NC(=NC(=C2)C3(CC3)[S@](=N)(=O)C)C4=C5C=CNC5=NC=C4 [AZD6738] (first compound max 1 µM, partner max 10 µM) | 0.565 | 0.213 | 0.994 | 0.901 | 0.827 | 0.73 | – | 0.969 | 0.929 | 0.943 | 0.747 | 0.977 | 1 | 0.799 | 0.405 | -0.0495 |
| C=CCn1c(=O)c2cnc(Nc3ccc(N4CCN(C)CC4)cc3)nc2n1-c1cccc(C(C)(C)O)n1 [AZD1775] + O=C(c1cc(Cc2n[nH]c(=O)c3ccccc23)ccc1F)N1CCN(C(=O)C2CC2)CC1 [Olaparib] (first compound max 1 µM, partner max 10 µM) | 0.225 | 0.253 | 0.952 | 0.84 | 0.769 | 0.438 | 0.58 | 0.869 | 0.507 | 0.914 | 0.574 | 0.964 | 1 | 0.752 | 0.23 | -0.105 |
| CCN(CCO)CCCOc1ccc2c(Nc3cc(CC(=O)Nc4cccc(F)c4)[nH]n3)ncnc2c1 [AZD2811] + C=CCn1c(=O)c2cnc(Nc3ccc(N4CCN(C)CC4)cc3)nc2n1-c1cccc(C(C)(C)O)n1 [AZD1775] (first compound max 1 µM, partner max 1 µM) | 0.169 | 0.0949 | 0.965 | 0.786 | 0.755 | 0.359 | 0.716 | 0.922 | 0.732 | 0.845 | 0.574 | 0.931 | 1 | 0.749 | 0.205 | -0.0694 |
| CCN(CCO)CCCOc1ccc2c(Nc3cc(CC(=O)Nc4cccc(F)c4)[nH]n3)ncnc2c1 [AZD2811] + C[C@@H]1COCCN1C2=NC(=NC(=C2)C3(CC3)[S@](=N)(=O)C)C4=C5C=CNC5=NC=C4 [AZD6738] (first compound max 1 µM, 7x7, partner max 10 µM) | 0.417 | 0.172 | 1 | 0.851 | 0.646 | 0.613 | 0.803 | 0.969 | 0.754 | 0.784 | 0.431 | 0.807 | 1 | 0.431 | 0.384 | -0.0815 |
